Tests used:
Details in all cases: two-fold dilutions in MH broth, 16–18 hours at 37 °C; triplicates
P. aeruginosa ZEM1.A = experiment: MIC, clinical isolate; type: cell-based, Pseudomonas aeruginosa
P. aeruginosa ZEM9.A = experiment: MIC, clinical isolate; type: cell-based, Pseudomonas aeruginosa
P. aeruginosa PEJ2.6 = experiment: MIC, clinical isolate; type: cell-based, Pseudomonas aeruginosa
P. aeruginosa PEJ9.1 = experiment: MIC, clinical isolate; type: cell-based, Pseudomonas aeruginosa
S. aureus Newman (MSSA) = experiment: MIC; type: cell-based, Staphylococcus aureus
S. aureus COL (MRSA) = experiment: MIC; type: cell-based, Staphylococcus aureus
A. baumannii 19606 = experiment: MIC; type: cell-based, Acinetobacter baumannii
E. coli (W3110) = experiment: MIC; type: cell-based, Escherichia coli
K. pneumoniae s. = experiment: MIC; type: cell-based, Klebsiella pneumoniae

## Polymyxin B
P. aeruginosa ZEM1.A
  MIC ZEM1.A: 0.125 μg mL^–1
P. aeruginosa ZEM9.A
  MIC ZEM9.A: 4 μg mL^–1
P. aeruginosa PEJ2.6
  MIC PEJ2.6: 0.5 μg mL^–1
P. aeruginosa PEJ9.1
  MIC PEJ9.1: 0.5 μg mL^–1
S. aureus Newman (MSSA)
  MIC S. aureus Newman (MSSA): >64 μg mL^–1
S. aureus COL (MRSA)
  MIC S. aureus COL (MRSA): >64 μg mL^–1
A. baumannii 19606
  MIC A. baumannii 19606: 0.125 μg mL^–1
E. coli (W3110)
  MIC E. coli (W3110): 0.125 μg mL^–1
K. pneumoniae s.
  MIC K. pneumoniae s.: 1 μg mL^–1

— paper PMC5676089 (Chemical Science, 2017)
